# Measurements published in patent US6441177B1 (Hoffmann-La Roche Inc., priority 1995, dated 2002).
# Like-named read-outs stand apart in the source and are kept apart here.
# Tests used:
# [1] = target: T1, human liver microsomal 2,3-oxidosqualene-lanosterol cyclase (OSC) (Homo sapiens, UniProt P48449); assay: Inhibition of human liver microsomal 2,3-oxidosqualene-lanosterol cyclase (OSC); assay type: biochemical; conditions: human liver microsomes; for IC50: concentration reducing conversion of MOS into lanosterol to 50% of control
# T1 construct: Liver microsomes from a healthy volunteer were prepared in sodium phosphate buffer (pH 7.4); from tissue; host or cells: human liver microsomes from a healthy volunteer
# T1 sequence (P48449 1-732): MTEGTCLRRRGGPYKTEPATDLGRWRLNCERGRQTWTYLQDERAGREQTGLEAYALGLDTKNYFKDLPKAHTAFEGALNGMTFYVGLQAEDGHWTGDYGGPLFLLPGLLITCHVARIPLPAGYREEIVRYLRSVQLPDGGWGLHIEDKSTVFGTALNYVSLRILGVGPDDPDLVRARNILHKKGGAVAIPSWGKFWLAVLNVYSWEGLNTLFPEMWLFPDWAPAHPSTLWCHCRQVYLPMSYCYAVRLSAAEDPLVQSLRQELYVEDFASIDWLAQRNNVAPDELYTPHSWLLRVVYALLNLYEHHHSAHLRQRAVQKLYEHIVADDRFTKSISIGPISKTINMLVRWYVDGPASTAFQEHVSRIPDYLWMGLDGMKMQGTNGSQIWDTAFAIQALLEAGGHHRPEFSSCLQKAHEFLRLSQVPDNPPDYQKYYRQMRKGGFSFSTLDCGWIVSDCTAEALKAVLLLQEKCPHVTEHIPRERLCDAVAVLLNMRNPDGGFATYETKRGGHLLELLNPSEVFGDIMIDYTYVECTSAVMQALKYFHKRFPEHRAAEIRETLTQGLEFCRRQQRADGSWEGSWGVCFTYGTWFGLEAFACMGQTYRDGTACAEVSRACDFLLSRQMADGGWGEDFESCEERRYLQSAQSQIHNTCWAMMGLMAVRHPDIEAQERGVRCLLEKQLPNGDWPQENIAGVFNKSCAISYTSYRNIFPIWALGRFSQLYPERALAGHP
# Procedure: Inhibition of Human Liver Microsomal 2,3-Oxidosqualene-lanosterol Cyclase (OSC)
# Liver microsomes from a healthy volunteer were prepared in sodium phosphate buffer (pH 7.4). The OSC activity was measured in the same buffer which also contained 1 mM EDTA and 1 mM dithiothreitol. The microsomes were diluted to 0.8 mg/ml protein in cold phosphate buffer. Dry [^14C]R,S-monooxidosqualene (MOS; 12.8 mCi/mmol) was diluted to 20 nCi/μl with ethanol and mixed with phosphate buffer-1% BSA (Bovine Serum Albumin). A stock solution of 1 mM test substance in DMSO was diluted to the desired concentration with phosphate buffer-1% BSA. 40 μl of microsomes were mixed with 20 μl of the solution of the test substance and the reaction was subsequently started with 20 μl of the [^14C]R,S-MOS solution. The final conditions were: 0.4 mg/ml of microsomal proteins and […] of [^14C]R,S-MOS in phosphate buffer, pH 7.4, containing 0.5% albumin, DMSO <0.1% and ethanol <2%, in a total volume of 80 μl.
# After 1 hour at 37° C. the reaction was stopped by the addition of 0.6 ml of 10% KOH-methanol, 0.7 ml of water and 0.1 ml of hexane:ether (1:1, v/v) which contained 25 μg of non-radioactive MOS and 25 μg of lanosterol as the carrier. After shaking 1 ml of hexane:ether (1:1, v/v) was added to each test tube, these were again shaken and then centrifuged. The upper phase was transferred into a glass test tube, the lower phase was again extracted with hexane:ether and combined with the first extract. The entire extract was evaporated to dryness with nitrogen and the residue was suspended in 50 μl of hexane:ether and applied to a silica gel plate. Chromatographic separation was effected in hexane:ether (1:1, v/v) as the eluent. […] After drying radioactive MOS and lanosterol were observed on the silica gel plate. The ratio of MOS to lanosterol was determined from the radioactive bands in order to determine the OSC inhibition.
# The test was carried out on the one hand with a constant test substance concentration of 100 nM and the percentage OSC inhibition against controls was calculated. In addition, the test was carried out with different test substance concentrations and subsequently the IC50 value was calculated, i.e. the concentration required to reduce the conversion of MOS into lanosterol to 50% of the control value.
# [2] = system: plasma cholesterol; assay: Cholesterol lowering in fat-fed hamsters; assay type: in vivo; conditions: fat-fed male golden hamsters, treated 10 days, 200 μmol (about 70-120 mg/kg/ay) in diet, percent of the control animals
# Procedure: Cholesterol Lowering in Fat-fed Hamsters. Male golden hamsters kept individually were pre-treated for 7 days with a diet containing grated coconut (40 cal. % fat). The animals were then divided into groups each comprising 5 animals. During the treatment the animals were maintained on the same diet. Each test substance was firstly homogenized in 9 ml of water and subsequently mixed with the milled diet. The controls received only feed converted into a paste with water. The animals were treated for 10 days with a test substance dosage of 200 μmol (about 70-120 mg/kg/ay). Blood samples (200 μl) were removed via the jugular vein under light anaesthesia on the last day of the pre-treatment and one day after the last administration of test substance. The plasma cholesterol concentration was determined using a calorimetric enzyme method. The plasma lipoproteins were separated by exclusion chromatography ([…] et al., Science Tools, 36, 1992, 10-12). The total cholesterol was determined in each fraction using a fluorometric enzyme method (Gamble et al., J. Lipid Res., 19, 1978, 1068-1071) in order to calculate the amount of cholesterol in the LDL and HDL fractions. The activity on plasma cholesterol and LDL and HDL cholesterol, expressed in percent of the control animals, for the products of Examples 8a and 12 is reproduced in the following Table: […]
# [3] = system: Aspergillus fumigatus; assay: Antifungal activity in vitro, microdilution method; assay type: cell-based; conditions: growth inhibition, incubation at 27° C. for 48 hours, read-out: IC50 (mg/ml) for: A. fumigatus after: 48 hours
# Procedure: (§1) Antifungal Activity In Vitro The compounds were tested for antifungal activity against Candida albicans, Cryptococcus neoformans and Aspergillus fumigatus using a microdilution method on microtitre plates (96 wells per plate). Yeast supplemented with 1% glucose and 0.25% di-potassium phosphate was used for the three fungal strains. The fungal cells were inoculated at 3×10^4 CFU (Colony Forming Unit) in […] of medium per well. The medium contained increasing concentrations of test substance. After incubation at 27° C. for 24 or 48 hours the turbidity in each well was measured by a microtitre plate reader. The growth inhibition was calculated in comparison to a control (without test substance). The IC50 value given in the following Table is the concentration of test substance at which the growth is inhibited by 50%.
# [4] = system: Candida albicans; assay: Antifungal activity in vitro, microdilution method; assay type: cell-based; conditions: growth inhibition
# Procedure: as §1
# [5] = system: Cryptococcus neoformans; assay: Antifungal activity in vitro, microdilution method; assay type: cell-based; conditions: growth inhibition, incubation at 27° C. for 48 hours, read-out: IC50 (mg/ml) for: C. neoformans after: 48 hours
# Procedure: as §1
# [6] = constant test substance concentration of 100 nM, 1 hour at 37° C., against controls
# [7] = incubation at 27° C. for 24 hrs., read-out: IC50 (mg/ml) for: C. albicans after: 24 hrs.
# [8] = incubation at 27° C. for 48 hrs., read-out: IC50 (mg/ml) for: C. albicans after: 48 hrs.
SMILES,IC50 [1] [nM],"Inhibition of OSC (%) [1, 6] [%]","inhibition at 0.1 µM [1, 6] [%]",IC50 [3] [mg/mL],"IC50 [4, 7] [mg/mL]","IC50 [4, 8] [mg/mL]",IC50 [5] [mg/mL],HDL cholesterol [2] [%],LDL cholesterol [2] [%],Total cholesterol [2] [%]
"C=CCN(C)CCCCCCOc1ccc(C(=O)c2ccc(Br)cc2)c(N)c1 [Example 36, [2-amino-4-[6-(allyl-methyl-amino)-hexyloxy]-phenyl]-(4-bromo-phenyl)-methanone]",8.9,–,92,0.0024,< 0.00032,0.0011,< 0.00032,–,–,–
"C=CCN(C)CCCCCCOc1ccc(C(=O)c2ccc(Br)cc2)nc1 [Example 43b, [5-[6-(allyl-methyl-amino)-hexyloxy]-pyridin-2-yl]-(4-bromo-phenyl)-methanone]",–,–,–,0.0064,< 0.00032,0.005,< 0.00032,–,–,–
"C=CCN(C)C/C=C(\C)CC/C=C(\C)CCC(=O)CCC=C(C)C [Example 54b, (9E,13E)-15-(allyl-methyl-amino)-2,9,13-trimethyl-pentadeca-2,9,13-trien-6-one]",–,–,73,0.0061,< 0.00032,0.0065,0.00069,–,–,–

# Now from value to compound, other results behind:
IC50 [1] [nM],"Inhibition of OSC (%) [1, 6] [%]","inhibition at 0.1 µM [1, 6] [%]",IC50 [3] [mg/mL],"IC50 [4, 7] [mg/mL]","IC50 [4, 8] [mg/mL]",IC50 [5] [mg/mL],SMILES,HDL cholesterol [2] [%],LDL cholesterol [2] [%],Total cholesterol [2] [%]
18,82,–,–,–,–,–,"C=CCN(C)C/C=C/COc1ccc(C(C)(O)c2ccc(Br)cc2)cc1 (racemic) [Example 8a, (E)-(RS)-1-[4-[4-(allyl-methyl-amino)-but-2-enyloxy]-phenyl]-(4-bromo-phenyl)-ethanol]",−18,−51,−30
19,–,84,–,–,–,–,"CN(C/C=C/COc1ccc(C(=O)c2ccc(Br)cc2)cc1)C1CC1 [Example 12, (E)-(4-bromo-phenyl)-[4-[4-(cyclopropyl-methyl-amino)-but-2-enyloxy]-phenyl]-methanone]",−23,−54,−25
4.5,–,91,0.00071,0.00071,0.021,< 0.00032,C=CCN(C)C/C=C/CNc1ccc(C(=O)c2ccc(Br)cc2)cc1F [Example 29],–,–,–
